Assay results from publication PMC11862990, “Utility of 6-aza-2-thiothymine in the synthesis of novel [1,2,4]triazolo[4,3-b][1,2,4]triazin-7-one derivatives: synthesis, structure elucidation, molecular docking and in vitro anti-lung cancer activity” (RSC Advances, 2025).
“And” between values parts separate entries of the source, which are not always exact repeats. Equal entries are not always repeated. Where two headings read alike, the source gives them in different places.

Experiments:
[1] = system: lung cancer cell lines (A549); experiment: DNA fragmentation assay (diphenylamine reaction); type: cell-based, human; settings: for DNA fragmentation Change: change vs negative control; for DNA fragmentation% (M ± SEM): negative control 12.54 ± 0.45
Method: The DNA fragmentation assay in lung cancer cell lines was performed in accordance with the protocol established by Yawata (1998)[34] with some modifications. […] The low-molecular-weight genomic DNA was extracted as described in Yawata (1998).[34] Approximately 1 × 10^6 cells of each treatment were plated. All the cells (including floating cells) were harvested and washed with Dulbecco's phosphate buffered saline. The cancer cells were lysed with the lysis buffer containing 10 mM Tris (pH 7.4), 150 mM NaCl, 5 mM ethylenediaminetetraacetic acid (EDTA), and 0.5% Triton X-100 for 30 min on ice. Lysates were vortexed and cleared by centrifugation at 10 000 g for 20 min. Fragmented DNA in the supernatant was extracted with an equal volume of a neutral phenol : chloroform : isoamyl alcohol mixture (25 : 24 : 1) and analyzed electrophoretically on 2% agarose gels containing 0.1 μg ml^−1 ethidium bromide.
The lung cancer cell lines (A549) were used to determine the quantitative profile of the DNA fragmentation. […] The cancer cells were lysed in 0.5 ml of lysis buffer containing 10 mM Tris–HCl (pH 8), 1 mM EDTA, and 0.2% Triton X-100 and centrifuged at 10 000 rpm (Eppendorf) for 20 min at 4 °C. The pellets were re-suspended in 0.5 ml of lysis buffer. To the pellets (P) and the supernatants (S), 0.5 ml of 25% tri-chloroacetic acid (TCA) was added and incubated at 4 °C for 24 h. The cells were then centrifuged for 20 min at 10 000 rpm (Eppendorf) at 4 °C and the pellets were suspended in […] of 5% TCA, followed by incubation at 83 °C for 20 min. Subsequently, to each cell sample, […] of diphenylamine (DPA) solution [150 mg DPA in 10 ml glacial acetic acid, […] of sulfuric acid and […] acetaldehyde (16 mg ml^−1)] was added and incubated at room temperature for 24 h (Gibb et al.,[35] 1997). The proportion of the fragmented DNA was calculated from the absorbance values at 600 nm wavelength using the formula:% fragmented DNA = [OD(S)/[OD(S) + OD(P)]] × 100(OD: optical density, S: supernatants, P: pellets).

[2] = system: BCL-2 gene expression in lung cancer cell lines; experiment: qRT-PCR gene expression, BCL-2; type: cell-based, human; settings: treated lung cancer cell lines vs negative control; descending order 7g, Dox, 7a
Method: The RNeasy Mini Kit (Qiagen, Hilden, Germany), augmented with a DNaseI (Qiagen) digestion step, was employed to extract total RNA from lung cancer cell lines following the manufacturer's procedure. The isolated total RNA was treated with one unit of RQ1 RNAse-free DNAse (Invitrogen, Germany) to eliminate DNA remnants, re-suspended in DEPC-treated water, and quantified photometrically at 260 nm. The purity of total RNA was evaluated using the 260/280 nm ratio, which ranged from 1.8 to 2.1.[27]
Furthermore, integrity was confirmed using ethidium bromide-stained examination of 28S and 18S bands via formaldehyde-containing agarose gel electrophoresis. Aliquots were utilized immediately for reverse transcription (RT); otherwise, they were preserved at −80 °C.
The poly(A) + RNA extracted from the lung cancer cell lines was reverse transcribed into the cDNA in a total amount of 20 μl utilizing the Revert Aid TM First Strand cDNA Synthesis Kit (Fermentas, Germany). A total of 5 μg of RNA was utilized with a master mix. The master mix comprised 50 mM MgCl2, 10× RT buffer (50 mM KCl; 10 mM Tris–HCl; pH 8.3), 10 mM of each dNTP, 50 μM oligo-dT primer, 20 IU ribonuclease inhibitor (50 kDa recombinant enzyme to suppress RNase activity), and 50 IU MuLV reverse transcriptase. Each sample mixture was centrifuged for 30 seconds at 1000 g and thereafter transferred to the thermocycler. The RT reaction was conducted at 25 °C for 10 minutes, subsequently at 42 °C for 1 hour, and concluded with a denaturation phase at 99 °C for 5 minutes. Subsequently, the reaction tubes containing RT-prepared samples were rapidly chilled in an ice chamber prior to cDNA amplification via the quantitative real-time polymerase chain reaction (qRT-PCR).
The cDNA copy number of lung cancer cell lines was determined using the StepOne™ Real-Time PCR System from Applied Biosystems (Thermo Fisher Scientific, Waltham, MA, USA). […]
The reaction protocol was divided into three stages. […] The relative quantification of the target gene to the reference gene was assessed using the 2^−ΔΔCT method.[29–31]

PC3 (prostate cell line) = experiment: MTT cytotoxicity assay, PC3; type: cell-based; settings: Homo sapiens, read-out: (%) Mortality PC3
Method: (§1) Using specific human cancer cell lines, the anti-proliferative effectiveness of compounds 7a–j was evaluated in an in vitro assay. The anti-cancer activity of these compounds (7a–j) on various cancer cell lines, including PC3 (Prostate cell line), A549 (Lung carcinoma), PACA2 (Pancreatic cancer cell line) and BJ1 (normal skin fibroblast), was investigated in this study using the 3-(4,5-dimethylthiazol-2-yl)-2,5-diphenyltetrazolium bromide (MTT) test. Doxorubicin (Dox) was the standard medication used as a positive control.
(§2) In the initial screening trial, a single dosage concentration of 100 μg ml^−1 was applied for 48 hours. The cytotoxicity of the treated cells was determined by calculating the cell death percentage (% mortality) as a percentage of untreated cells (Table 2).
(§3) All incubations were performed at 37 °C in a 5% CO2 incubator with a 95% humidified environment (Sheldon, TC2323; Cornelius, OR, USA). 96-well micro titer polypropylene plates were seeded with cells at a density of 10^4 cells per well in complete DMEM media, and the cells were allowed to adhere for 24 hours. After the media was aspirated, the tested compounds were added to the cells in a single dose of 100 μg ml^−1 in DMSO. Each well received 40 μl of MTT salt (2.5 g ml^−1) following a 48 hour incubation period. 200 μl of 10% sodium dodecyl sulfate (SDS) was added to each well after the reaction ended, and any formazan crystals that could have been produced were dissolved by two hours of incubator heating to 37 °C. The amount of formazan product was measured at 595 nm using a microplate reader (Bio-Rad Laboratories, model 3350, California, USA) with a reference wavelength of 690 nm, serving as a backdrop. Rather than the drugs under investigation, the medium was applied to the untreated cells (negative control). The examined compounds were dissolved in dimethylsulfoxide (DMSO), and the final concentration in the cells was less than 0.2%. For each compound and the control, the solvent concentration was the same.

[3] = system: PACA2 (pancreatic cancer cell line); experiment: MTT cytotoxicity assay, PACA2; type: cell-based; settings: Homo sapiens; for cytotoxicity at 100 µg/mL: read-out: (%) Mortality PACA2
Method: as §1, §2, §3

[4] = PaCa-2, 100 μg ml^−1, 48 hours, MTT

SMILES | DNA fragmentation Inhibition% [1] | DNA fragmentation Change [1] | DNA fragmentation% (M ± SEM) [1] | BCL-2 (anti-apoptotic gene) expression level [2] | cytotoxicity at 100 µg/mL (PC3 (prostate cell line); 100 μg ml^−1, 48 hours, MTT) | cytotoxicity at 100 µg/mL [3, 4] | cytotoxicity at 100 µg/mL (PC3 (prostate cell line); 48 h) | cytotoxicity at 100 µg/mL ([3]; PaCa-2, 48 h) | IC50 ([3]; PaCa-2, MTT, 48 hour incubation)
COc1ccc(-c2nn(-c3ccccc3)c3nc(=O)c(C)nn23)cc1 [Compound 7g, 3-(4-Methoxyphenyl)-6-methyl-1-phenyl-[1,2,4]triazolo[4,3-b][1,2,4]triazin-7(1H)-one] | 17.74% | 13.03 | 25.57 ± 0.94% and 25.57 ± 0.94^b % | diminished | 14.6 ± 0.92% | 13.4 ± 1.15% |  |  | 
COc1cccc2c1C(=O)c1c(O)c3c(c(O)c1C2=O)C[C@@](O)(C(=O)CO)C[C@@H]3O[C@H]1C[C@H](N)[C@H](O)[C@H](C)O1 [Dox, Doxorubicin, reference compound] | 19.69% | 15.84 |  | diminished |  |  | 100% | 100% | 52.1 µM
Cc1nn2c(C)nn(-c3ccc([N+](=O)[O-])cc3)c2nc1=O [Compound 7a, 3,6-Dimethyl-1-(4-nitrophenyl)-[1,2,4]triazolo[4,3-b][1,2,4]triazin-7(1H)-one] | 27.78% | 20.24 | 32.78 ± 1.35% and 32.78 ± 1.35^a % | diminished | 28.2 ± 0.25% | 20.4 ± 0.11% |  |  | 
